Assay results published in patent US20230285457A1, “NANOPARTICLES FOR CANCER TREATMENT” (Universidad de Guadalajara, priority 2019, published 2023).

Test: Quantification of the DOX encapsulation percentage in the nanoparticle
Format: physicochemical
Conditions: DOX with respect to the mass of PLGA in the nanoparticles; mean ± DE, n = 3
Method: To evaluate the DOX release profile contained in anti-GZMB PLGA/DOX/Ch/ICG NPs, firstly, the quantification of the encapsulation percentage in the nanoparticle was performed by dissolving the PLGA NPs pellet in acetone, quantifying the fluorescence intensity and interpolating fluorescence intensity against DOX standard; this assay was performed in fluorescence plates of 96-well Clear Bottom (Corning®—CLS3904) using excitation and emission at 488 and 560 nm, respectively.

Encapsulation percentage (w/w): 7.32 ± 1.4 percentage (w/w)
SMILES: COc1cccc2c1C(=O)c1c(O)c3c(c(O)c1C2=O)C[C@@](O)(C(=O)CO)C[C@@H]3O[C@H]1C[C@H](N)[C@H](O)[C@H](C)O1 [DOX, doxorubicin]
